Laboratory results published in publication PMC6154719 (Molecules : A Journal of Synthetic Chemistry and Natural …, 2017).

Assays:
Assay type in all cases: in vitro ADME
SULT = SULT activity in rat liver subcellular fraction; details: 100 µM sesquiterpene, control 8.74 ± 0.52
Description: (§1) Enzyme activities were assayed in human and rat liver cytosolic and microsomal fractions. The enzyme assays (each performed in 4–8 replicates) were repeated three times (HPLC measurement of CYP activities was repeated only twice, Table 3). Inhibition studies were carried out by incubation of specific substrates in the presence of sesquiterpenes (in the range 0–100 µM).
(§2) The assays of all other enzymes were based on spectrophotometric detection of product formed or detection of decreasing substrate/cofactor levels using microplate reader Tecan Infinite M200 in cytosolic or microsomal fractions. Enzyme activities were determined using slight modifications of previously-published methods: carbonyl reducing enzymes (AKR1A, AKR1C, CBR1 [45], NQO1 [46]), UDP-glucuronosyltransferase (UGT [47]), sulfotransferase (SULT [48]), and cytosolic glutathione-S-transferase (GST [49]).
(§3) Sesquiterpenes CNER, TNER and FAR, non-volatile liquids, were pipetted, and proper concentration was calculated according to density. All compounds were dissolved in DMSO. The final solvent concentration in the inhibition assays was 1%, which had no effect on the enzyme activity (data not shown). Non-enzymatic interference of sesquiterpenes with some compounds in the reaction mixtures (e.g., fluorescence enhancing or quenching) was considered and excluded. All experiments were performed in three replicates, if not stated otherwise.
(§4) CNER, TNER and FAR at a fixed concentration of 100 µM were screened for inhibition of cytosolic AKR1A1, AKR1C, CBR1, NQO1, SULT, and GST, and microsomal CYPs and UGT. The degree of inhibition caused by sesquiterpenes was compared with non-inhibited control reactions, which contained solvent without sesquiterpenes.

AKR1C = AKR1C activity in rat liver subcellular fraction; details: 100 µM sesquiterpene, control 14.8 ± 1.8
Description: as §1, §2, §3, §4

CYP2B/3A [1] = test: CYP2B/3A (BROD activity, benzyloxyresorufin O-debenzylation) in rat liver microsomes; details: for IC50: probe benzyloxyresorufin; for Specific Activity, CYP2B/3A (BROD activity): in the presence of 100 µM sesquiterpene, control 1.74 ± 0.02
Description: as §1
(§5) Enzyme activities of individual CYP forms were measured according to established protocols. The following microsomal CYP activities were tested: CYP2A6, coumarin 7-hydroxylation; CYP2B6, 7-ethoxy-4-(trifluoromethyl)coumarin 7-deethylation, CYP2C9, diclofenac 4′-hydroxylation, CYP2C19 assay, S-mephenytoin 4′-hydroxylation, CYP2D6 on bufuralol 1′-hydroxylation, CYP2E1, chlorzoxazone 6-hydroxylation and CYP3A4, testosterone 6β-hydroxylation, and midazolam 1′-hydroxylation. Activities were measured using the Prominence HPLC system (Shimadzu, Kyoto, Japan), equipped with a LiChroCART 250-4 LiChrospher 100 RP-18 column or Chromolith®HighResolution RP-18 end-capped column (Merck, Darmstadt, Germany) and UV or fluorescence detection, according to the cited literature. Further incubation details are described either in the corresponding references, as well as in the papers from this laboratory e.g., [42, 43, 44]. CYP1A2, 7-ethoxyresorufin O-deethylation, and CYP3A4/2B6 (human), CYP2B1 (rat), benzyloxyresorufin O-debenzylation were measured using the microplate reader Tecan Infinite M200 (Tecan Group; Mannedorf, Switzerland).
as §3, §4
(§6) The concentration of sesquiterpenes required for 50% inhibition of enzyme activity, the IC50 value, was determined. Their final concentrations in the reaction mixture were proposed to cover the entire inhibitory range of these compounds (1–100 µM). The IC50 values for each sesquiterpene were determined by plotting sigmoidal dose response curves of specific enzyme activity vs. logarithm of sesquiterpene concentration using GraphPad Prism version 6.07 for Windows (GraphPad Software Inc., La Jolla, CA, USA).
(§7) The kinetic inactivation study of the CYP1A2 (EROD activity) and CYP2B/3A (BROD activity), both in rat and human, with TNER, was performed to find out the mechanism of enzyme inhibition by this sesquiterpene. Mechanism of EROD and BROD inhibition was tested at the final ethoxyresorufin or benzyloxyresorufin concentrations 0.5–5.0 µM. The concentration of TNER was 5.0 µM.
(§8) Experimental data were fitted to the Michaelis-Menten equation, basic kinetic parameters were determined using the program GraphPad Prism version 6.07 for Windows. The type of inhibition was estimated using a Lineweaver-Burk (double-reciprocal) plot.

NQO1 [2] = target: T1, NQO1 (Homo sapiens, UniProt P15559); test: NQO1 activity in human liver subcellular fraction; details: 100 µM sesquiterpene, control 6.38 ± 0.34
T1 construct: Frozen liver (both rat and human) was thawed; from tissue; host or cells: human liver cytosolic fraction
Description: as §1, §2, §3, §4

CBR1 = target: T2, CBR1 (Rattus norvegicus, UniProt P47727); test: CBR1 activity in rat liver subcellular fraction; details: 100 µM sesquiterpene, control 21.7 ± 1.6
T2 construct: Frozen liver (both rat and human) was thawed; from tissue; host or cells: rat liver cytosolic fraction
T2 sequence (P47727 1-277): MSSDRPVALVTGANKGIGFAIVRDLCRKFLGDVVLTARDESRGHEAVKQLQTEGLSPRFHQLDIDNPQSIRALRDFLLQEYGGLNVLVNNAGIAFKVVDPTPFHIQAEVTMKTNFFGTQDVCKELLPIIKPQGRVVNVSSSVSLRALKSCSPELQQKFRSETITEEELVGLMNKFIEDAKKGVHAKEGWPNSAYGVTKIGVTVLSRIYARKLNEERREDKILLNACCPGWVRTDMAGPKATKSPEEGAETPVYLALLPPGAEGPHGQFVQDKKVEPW
Description: as §1, §2, §3, §4

CYP3A4/5 = CYP3A4/5 testosterone 6β-hydroxylation in human liver microsomes (HPLC); details: substrate testosterone, n = 2
Description: as §1, §5, §6

GST = GST activity in human liver subcellular fraction; details: 100 µM sesquiterpene, control 223 ± 19
Description: as §1, §2, §3, §4

NQO1 [3] = target: T3, NQO1 (Rattus norvegicus, UniProt P05982); test: NQO1 activity in rat liver subcellular fraction; details: 100 µM sesquiterpene, control 25.3 ± 5.6
T3 construct: Frozen liver (both rat and human) was thawed; from tissue; host or cells: rat liver cytosolic fraction
T3 sequence (P05982 2-274 limits assumed): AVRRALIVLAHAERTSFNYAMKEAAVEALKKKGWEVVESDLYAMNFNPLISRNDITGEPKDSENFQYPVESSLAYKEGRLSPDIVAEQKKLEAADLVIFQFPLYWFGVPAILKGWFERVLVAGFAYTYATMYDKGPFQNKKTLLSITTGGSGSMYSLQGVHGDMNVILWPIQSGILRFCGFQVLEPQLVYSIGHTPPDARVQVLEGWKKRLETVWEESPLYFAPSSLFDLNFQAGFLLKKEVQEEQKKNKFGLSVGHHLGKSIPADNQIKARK
Description: as §1, §2, §3, §4

CYP2B/3A [4] = test: CYP2B/3A (BROD activity, benzyloxyresorufin O-debenzylation) in human liver microsomes; details: for Specific Activity, CYP2B/3A (BROD activity): in the presence of 100 µM sesquiterpene, control 1.22 ± 0.05; for inhibition at 5 µM: liver microsomes, human, 5 µM inhibitor; for inhibition at 5 µM / IC50: probe benzyloxyresorufin
Description: as §1, §5, §3, §4, §6, §7, §8

CYP2A6 = target: T4, CYP2A6 (Homo sapiens, UniProt P11509); test: CYP2A6 coumarin 7-hydroxylation in human liver microsomes (HPLC); details: substrate coumarin, n = 2
T4 construct: other CYP-mediated activities in human liver microsomes; from tissue; host or cells: human liver microsomal fraction
Description: as §1
as §5, with “Further incubation details are described either in the corresponding references, as well as in the papers from this laboratory e.g., [42, 43, 44].” left out, “Switzerland). […]” for “Switzerland).”

[5] = human, liver microsomes, probe testosterone

T1 sequence (P15559 whole entry): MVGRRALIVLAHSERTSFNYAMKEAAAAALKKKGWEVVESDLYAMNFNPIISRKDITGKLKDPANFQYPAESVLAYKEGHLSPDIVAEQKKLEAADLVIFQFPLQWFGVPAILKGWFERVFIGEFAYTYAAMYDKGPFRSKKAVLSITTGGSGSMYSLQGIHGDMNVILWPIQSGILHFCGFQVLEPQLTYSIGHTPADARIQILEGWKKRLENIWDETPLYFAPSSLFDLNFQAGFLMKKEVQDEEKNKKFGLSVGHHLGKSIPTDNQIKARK
T4 sequence (P11509 whole entry): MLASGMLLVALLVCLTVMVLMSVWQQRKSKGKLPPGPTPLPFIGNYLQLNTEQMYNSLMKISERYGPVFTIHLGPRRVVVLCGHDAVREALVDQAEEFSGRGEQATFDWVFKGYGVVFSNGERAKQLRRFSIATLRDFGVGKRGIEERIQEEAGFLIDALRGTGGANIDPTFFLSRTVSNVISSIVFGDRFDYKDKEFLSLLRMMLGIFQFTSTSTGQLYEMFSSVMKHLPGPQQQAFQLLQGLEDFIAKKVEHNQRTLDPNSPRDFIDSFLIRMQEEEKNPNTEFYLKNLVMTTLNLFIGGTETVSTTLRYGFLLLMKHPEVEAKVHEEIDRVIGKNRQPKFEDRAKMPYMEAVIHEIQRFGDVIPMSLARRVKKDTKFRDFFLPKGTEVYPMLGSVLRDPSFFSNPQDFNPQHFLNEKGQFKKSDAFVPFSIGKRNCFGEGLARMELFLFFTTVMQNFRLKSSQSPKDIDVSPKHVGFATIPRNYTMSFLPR

Compound	Specific activity, SULT (SULT) [nmol/mg/min]	Specific activity, AKR1C (AKR1C) [nmol/mg/min]	IC50 (CYP2B/3A [1]; rat liver microsomes) [µM]	Specific Activity, CYP2B/3A (BROD activity) (CYP2B/3A [1]; rat liver microsomes) [pmol/mg/min]	Specific activity, NQO1 (NQO1 [2]) [nmol/mg/min]	Specific activity, CBR1 (CBR1) [nmol/mg/min]	IC50 (CYP3A4/5; [5]) [µM]	Specific activity, GST (GST) [nmol/mg/min]	Specific activity, NQO1 (NQO1 [3]) [nmol/mg/min]	Specific Activity, CYP2B/3A (BROD activity) (CYP2B/3A [4]; human liver microsomes) [pmol/mg/min]	inhibition at 5 µM (CYP2B/3A [4]) [%]	IC50 (CYP2B/3A [4]; human liver microsomes) [µM]	IC50 (CYP2A6) [µM]	K’M (CYP2B/3A [1]; rat liver microsomes, benzyloxyresorufin 0.5–5.0 µM in the presence of TNER 5 µM, KM without TNER 0.74 ± 0.12) [µM]	V’MAX (CYP2B/3A [1]; rat liver microsomes, benzyloxyresorufin 0.5–5.0 µM in the presence of TNER 5 µM, VMAX without TNER 7.04 ± 0.35) [nM/min]	type of inhibition, BROD activity (CYP2B/3A [1]; rat microsomes, 5 µM TNER, benzyloxyresorufin 0.5–5.0 µM)	IC50 (CYP3A4/5) [µM]	K’M (CYP2B/3A [4]; human liver microsomes, benzyloxyresorufin 0.5–5.0 µM in the presence of TNER 5 µM, KM without TNER 0.93 ± 0.22) [µM]	V’MAX (CYP2B/3A [4]; human liver microsomes, benzyloxyresorufin 0.5–5.0 µM in the presence of TNER 5 µM, VMAX without TNER 2.27 ± 0.17) [nM/min]	type of inhibition, BROD activity (CYP2B/3A [4]; human microsomes, 5 µM TNER, benzyloxyresorufin 0.5–5.0 µM)
C=CC(C)(O)CC/C=C(/C)CCC=C(C)C (stereo not drawn) [CNER, cis-nerolidol]	8.74 ± 0.26	14.6 ± 2.1	6.47	0.331 ± 0.009	5.44 ± 0.82	19.5 ± 1.4	186 ± 125	209 ± 10	21.7 ± 3.6	0.168 ± 0.007	71	1.32								
CC(C)=CCC/C(C)=C/CC/C(C)=C/CO [FAR, farnesol]	8.55 ± 0.30	14.9 ± 1.5	4.43	0.212 ± 0.003	5.23 ± 1.03	21.1 ± 1.4		181 ± 13	22.2 ± 3.3	0.033 ± 0.004	85	1.78	85.9 ± 22.9							
C=CC(C)(O)CC/C=C(\C)CCC=C(C)C (stereo not drawn) [TNER, trans-nerolidol]	8.48 ± 0.28	14.8 ± 1.6	5.11	0.153 ± 0.008	5.53 ± 0.51	20.5 ± 1.6	51	235 ± 13	21.8 ± 2.4	0.188 ± 0.005	68	2.4		1.26 ± 0.39	0.81 ± 0.09	non-competitive	50.5 ± 13.5	0.94 ± 0.39	0.74 ± 0.10	non-competitive
